We go through one compound from patent US20090011013A1, “Tacrolimus Combination Products” (LIFECYCLE PHARMA A/S, priority 2005, published 2009).

In data set [1] the test system is Canine Lung Allotransplantation. Conditions: dogs, cited from earlier work.
For data set [2] the following is noted: cited from earlier work.
The conditions of data set [3]: cited from earlier work. The source holds these as a separate data set.
Data set [4] is described as follows: three-way crossover pilot bioavailability study of Prograf and Neoral combinations vs. Prograf. In kind it is in vivo, human.
The conditions of data set [5]: rats, cited from earlier work.
For data set [6] the following is noted: oral, cited from earlier work.

Each structure is given as a SMILES string. Read-outs that look alike come from different tables or passages of the source.

As usually defined, the bioavailability is dose-corrected exposure relative to a reference, in per cent. For the compound `C=CC[C@@H]1/C=C(\C)C[C@H](C)C[C@H](OC)[C@H]2O[C@@](O)(C(=O)C(=O)N3CCCC[C@H]3C(=O)O[C@H](/C(C)=C/[C@@H]3CC[C@@H](O)[C@H](OC)C3)[C@H](C)[C@@H](O)CC1=O)[C@H](C)C[C@@H]2OC` [Tacrolimus], the “blood concentration of tacrolimus, combination vs alone at same dose” value in data set [1] (group E vs group C) is listed as “not significant higher”. Besides, the immunosuppressive effect result was “rejection” in data set [1] (i.m. 0.03 mg/kg/day (suboptimal dose)) and “adequate immunosuppression” in data set [1] (i.m. 0.1 mg/kg/day (optimal dose)). In addition, the bioavailability in data set [2] (after oral administration) was not above 20%; in data set [5] (intestinal administration), approximately 25%; in data set [5] (intraportal administration (infusion over 1 hour)), “about 40%”. The “mean time-to-peak concentration (tmax)” value in data set [2] (oral, healthy subjects or kidney or liver transplanted patients) was 1 to 2 h. For the same compound, the solubility in chloroform entry in data set [3] (chloroform) is “very soluble”. Moreover, the solubility in ethanol entry in data set [3] (ethanol) was “freely soluble”. For the same compound, the solubility in methanol result in data set [3] (methanol) is “very soluble”. In addition, in data set [3] (water), the solubility in water entry is listed as “practically insoluble”. In addition, the “increase in tacrolimus bioavailability” value in data set [4] (tacrolimus and cyclosporine in a ratio of 1:20) is “above 100%”. The “increase of bioavailability of tacrolimus” value in data set [4] (tacrolimus and cyclosporine in the ratio of 1:2) is recorded as 30%. Also, the hepatic extraction ratio in data set [5] (calculated) was 60%. In addition, in data set [5] (calculated), the intestinal extraction was 34%. Also, the results for the “time to reach peak” value in data set [6] (most patients) and in data set [6] (some patients) were not above 1 h and not below 4 h, respectively.
